According to a melting point compilation (Tetko et al.; mined from patent text by program, amines drawn as free bases though some values may be those of a salt):

Compound | melting point [°C]
CCOC(=O)c1ccc(N(C)C)nn1 | 112
COc1cc(NS(=O)(=O)c2ccc(C)cc2)cc(OC)c1 | 103 to 104
O=C1c2c(O)ccc(O)c2C(=O)c2c(NCCN3CCCC3)ccc(NCCN3CCCC3)c21 | 193 to 196
Cc1cc(-n2ccnc2)c2cccc(OCc3c(Cl)ccc(S(=O)(=O)N4CCC[C@H]4C(=O)N(C)CCN(C)CCCCO)c3Cl)c2n1 | 84
CCn1c(=O)c(C(=O)NC)c(O)c2ccc(C)nc21 | 150 to 154
Cc1c(C#N)cc2ccc3c(c2c1Br)C(C)(C)C(=O)O3 | 235 to 237
O=C(O)C1(C(=O)O)CC(C2CCC2)C1 | 150 to 151
NNC1=Nc2ccc(Cl)cc2C(c2ccccc2F)S(=O)(=O)CC1 (configuration not stated) | 159
CCN(CC)CCNc1ccc(C)c2sc3ccc(O)cc3c(=O)c12 | 254 to 255
COc1ccc(C2CCN(C(=O)/C=C/c3ccccc3)CC2)cc1OC1CCCC1 | 93 to 95
NS(=O)(=O)c1ccc2c(c1)C(=O)C1(CCOC1=O)S2 (configuration not stated) | 199 to 201
ClCCCOc1ccc(-c2nccs2)cc1 | 72 to 75
Cn1c(C(F)(F)F)nn(-c2ccc(Cl)c(C(=O)O)c2)c1=O | 223
CCCCn1cnc2c(Oc3cccc(OC)c3)nc(Nc3ccc(F)cc3)nc21 | 138 to 140
COc1ccc([C@H](O)[C@@H](Cc2ccc(C(F)(F)F)cc2)NC(=O)c2ccc(F)c3ccccc23)cc1 (racemic) | 184 to 185
COCCC1(C(=O)N[C@@H](Cc2ccc(NC(=O)c3c(Cl)cccc3Cl)cc2)C(=O)O)CCCC1 | 136 to 140
Cc1nc2cccc(OCC(C)(C)C(=O)NC3CCC3)c2c(N)c1C(=O)O | 183 to 187
CCOC(=O)c1sc(N2CCN(Cc3ccc(C(F)(F)F)cc3)C2=O)nc1C | 126 to 127
COc1ccc(-c2c3ccccc3cc3sc4ccccc4c23)cc1I | 274 to 275
CCC1(CC)C(=O)N(c2ccc(C#N)c(C(F)(F)F)c2)C(=S)N1C | 126 to 127
O=C(Nc1nc(CN2CCC(c3c[nH]c4ccccc34)CC2)cs1)C(F)(F)F | 244 to 247
Cc1nc(C(N)=O)c2n1-c1ccc(Cl)cc1C(c1ccccc1)=NC2 | 335 to 340

Compound | melting point [°C]
Cc1ccc(C(=O)COc2ccc(F)cc2)cc1 | 95 to 96
C#CCN1C(=O)COc2cc(F)c(N(C(C)=O)C(=O)C3=C(C(=O)OC)CCCC3)cc21 | 153 to 154
Cn1nc(CO)cc1-c1ccccc1 | 95 to 99
O=C(c1ccccc1)c1ccc2c([N+](=O)[O-])c(O)c(O)cc2c1 | 196 to 205
Cc1ccc(-c2cc3cc(C(=O)Nc4ccc(CN(C)C5CCOCC5)cc4)ccc3o2)cc1 | 233 to 236
CN1CCN(c2ccc3nc(N)c(C#N)c(NCc4ccccc4)c3c2)CC1 | 176
Cc1cccc(-c2nnnn2C)c1S(N)(=O)=O | 140 to 161
CN(C)CCNC(=O)c1ccc(Br)cc1 | 67 to 69
O=C(Nc1ccc(-n2nc(C(F)(F)F)cc2C(F)(F)F)cc1)c1cc(F)cc(F)c1F | 169 to 170
Cc1c(C(F)(F)F)n(C)c(=O)n(-c2ccc(Br)cc2F)c1=O | 129 to 131
CCCCN(CCCC)CCCOc1ccc(C(=O)c2c(-c3ccccc3)cc3ccccn23)cc1 | 92 to 93.5
O=C1NC(CCO)CO1 (configuration not stated) | 90 to 91
Cn1c(=N)c(C(=O)NCCO)c(O)c2cc(Cl)ccc21 | 234 to 237
Cc1ccccc1C(=O)N[C@@H](CC(C)C)C(=O)N[C@@H](C(C)C)[C@@H](O)c1c(-c2ccccc2)c1=O | 101 to 105
Cc1ccc([N+](=O)[O-])cc1Nc1cc(Cl)ccn1 | 130 to 133
O=C(O)C(CC=Cc1ccccc1)Cc1cccc2ccccc12 (configuration not stated) | 135 to 137
O=C(O)c1cccc(OCc2csc(-c3ccccc3)n2)c1 | 155 to 157
O=C(CCCCl)Nc1cccc2cccnc12 | 62 to 63
CC(C)(C)OC(=O)N1CCC(N(Cc2ccccc2)S(N)(=O)=O)CC1 | 140 to 142
O=C(Nc1cnccn1)N1CCN(c2nc(-c3ccccc3)cs2)CC1 | 134 to 135
COc1ccc(Cn2c3c(c(C#N)c2NC2=CC(=O)CCC2)CCCC3)cc1 | 143 to 145
CCc1noc2c(Cl)c3c(cc12)CC(C(=O)O)O3 (configuration not stated) | 213 to 215

Compound | melting point [°C]
Cc1cn2cccc(CCl)c2n1 | 110 to 112
Cc1cc(=O)n2nc(SCc3ccc(Cl)cc3)sc2n1 | 138 to 140
CCOC(=O)C1=C(C)NN=C(C(=O)OC)C1c1cccnc1 (configuration not stated) | 179
Cc1cc(=O)c2ccc(OCCCN3CCC(NC(=O)c4ccccc4)CC3)cc2o1 | 173 to 175
COC1Oc2c(c(=O)oc3cc(O)ccc23)C1c1c(O)c2ccc(O)cc2oc1=O (configuration not stated) | > 300
CSCCC(CS)NC(=O)OC(C)(C)C (configuration not stated) | 37
CCOC1=NS(=O)(=O)C(C#N)=C1N | 228 to 229
O=S(=O)(c1c(-c2ccc(Cl)cc2)[nH]c(SC(F)(F)F)c1Br)C(F)(F)F | 122 to 125
CCCCC(=O)c1c(-c2ccc3c(Br)c(OCC(=O)OCC)ccc3c2)oc2ccc(Cl)cc12 | 88 to 91
O=C(O)C1CC(c2ccccc2)=NN1 (configuration not stated) | 180 to 182
O=CC1(Nc2ccccc2)CCN(CCc2ccccc2)CC1 | 83 to 84
COC(=O)c1ccc(OCC(=O)c2ccc3c(c2)C(C)(C)CCS3)cc1O | 135 to 137
C[C@@H]1CCC[C@H](C)N1Cc1ccc2cc(NC(=O)N3CCC(c4ccc(Cl)cc4)CC3)ccc2c1 | 199 to 200
COc1cc(C(=O)CSCC2CCCCC2)c(OC)cc1Cl | 51 to 53
CC(=O)NC(C#N)NC(=O)c1cc(C)cc(C)c1 (configuration not stated) | 195 to 197
CCOC(=O)C=C(C)c1ccc([N+](=O)[O-])cc1 | 71 to 74
CCCc1cn2ccccc2c1C(=O)c1ccc(O)cc1 | 210 to 214
CCCCCCc1cc2c(cc1C(=O)Oc1ccc(C(=O)O)cn1)C(C)(C)CC2 | 104 to 105
COc1cn(-c2cc(N3CCCC3=O)ccc2F)nc(-c2ccnn2-c2ccccc2)c1=O | 171 to 174
Nc1ccc(CCC(=O)Nc2ccc(Cl)cc2Cl)cc1N | 149 to 150

Further lines, results first:

melting point [°C] | Compound
133 | Cn1ccc2c1CCn1ccnc1C2=C1CCN(C2CCN(C(=O)c3cc(C(F)(F)F)cc(C(F)(F)F)c3)C(Cc3ccccc3)C2)CC1 (configuration not stated)
59.5 to 60.5 | C[C@@H](O)c1cc2ccoc2cn1
201 to 203 | N#Cc1ccc(CNc2cc(C(N)=O)c([N+](=O)[O-])cc2[N+](=O)[O-])cc1
154 | CCCCNC(=S)c1ccc2c(c1)N(C(C)CN(C)C)c1ccccc1S2 (racemic)
116 to 118 | Cc1c(C(=O)Nc2ccc(OCC(C)(C)C)c(C#N)c2)cnn1-c1cccc(C(F)(F)F)c1
153 to 156 | O=C(O)COc1ccc(C(=O)c2ccccc2F)c(Cl)c1Cl
174 to 178 | CNC(=O)C(Cc1ccc(OC)cc1)NC(=O)C(C)(CC(C)C)c1ccc(Cl)cc1S (configuration not stated)
27 to 30 | COC(=O)c1ccc(Cl)cc1O
141 to 143 | CN1C(=O)C(C(=O)Nc2ccccn2)Sc2ccccc21 (configuration not stated)
83 to 84 | CCC(=O)c1ccc(S(=O)(=O)c2ccccc2)cc1
223 to 225 | Nc1cc(=O)[nH]c2c1cnn2-c1ccccc1
119 to 120 | COc1nc(SCc2ccc(F)cc2)cnc1NS(=O)(=O)c1cccc(Cl)c1Cl
304 to 306 | CC(C)(C)c1cc(N=C(O)c2cc(C(O)=Nc3cc(C(C)(C)C)c(O)c(C(C)(C)C)c3)c(C(=O)O)cc2C(=O)O)cc(C(C)(C)C)c1O
174 to 175 | CCCC[C@@H](NC(=O)[C@H](Cc1ccc(O)cc1)NC(=O)OC(C)(C)C)C(=O)NCC(=O)O
136 to 137 | COc1cc2c(Nc3ccc(Cl)cc3F)ncnc2cc1OCCCNC(=O)OCC(C)C
178 to 180 | O=C(O)CCN1CCN(c2ccc(F)cc2)CC1
135 | CCCCNC(=O)COC1C(O)C(CO)OC(Oc2ccc(N)cc2)C1O (configuration not stated)
76 to 77 | COC1=C(OC)C(=O)C2=C(CCC(CCOc3ccc(OC)cc3)CC2)C1=O
140 to 141 | CC(=O)Oc1ccc2c(=O)c(C#N)c(C)oc2c1

melting point [°C] | Compound
114 to 116 | CCOC(=O)C(=O)c1cn(CC)c2cc(-c3ccc(OC(F)(F)F)cc3)ccc12
138 | CCCCCCCCCCCCCCCCCCC(=O)Nc1ccc(O)cc1
120 | CNc1cc(Cl)cc(Cl)c1[N+](=O)[O-]
199 to 202 | CC12CC=CCC1CCC1C2CCC2(C)C(C(N)=O)CCC12 (configuration not stated)
171 to 173 | OC(c1ccc(Cl)cc1)(c1ccc(Cl)cc1)c1nccn1Cc1ccc(Cl)cc1
85 to 87.5 | CC1(C)Cc2cccc(OC(=O)Cl)c2O1
160 | CC(=O)Nc1cccc(C=O)c1C
73 to 76 | CC(Cn1cc(Sc2ccccc2)c2ccccc21)N(O)C(N)=O (configuration not stated)
114 to 116 | Oc1ccc(C(=S)c2ccc(-c3ccccc3)cc2)c(O)c1
179 to 181 | O=[N+]([O-])c1ccc2nc(-c3ccccc3)sc2c1
138 to 140 | Cc1cccc(Nn2cnc(C)c2-c2cccc(C#N)c2)c1
144 | NC(=O)N1c2ccccc2C(Br)C(Br)c2ccccc21 (configuration not stated)
63 | OC[C@@H](O)CNCc1ccccc1
130 to 132 | N#Cc1ccccc1OC1SCC(O)C(O)C1O (configuration not stated)
174 to 176 | CCOC(=O)c1nn(-c2ccc(Br)cc2)c(=O)c(C#N)c1C
104 | CCCN(CCN1CCN(c2cccc(Cl)c2Cl)CC1)C1CCc2ncsc2C1 (configuration not stated)
216 to 218 | O=C(NCCCn1ccnc1)c1[nH]c2ccc(Cl)cc2c1S(=O)(=O)c1ccccc1
85 | COc1ccc(C(=[N+]=[N-])c2ccc(OC)cc2)cc1
220 to 224 | O=C(O)c1cccc(NC(=O)[C@H](CO)NS(=O)(=O)c2ccc(Cl)cc2)c1
